# Assay results: article PMC10714400, “Antimicrobial Peptide–Peptoid Hybrids with and without Membrane Disruption” (ACS Infectious Diseases, 2023)
# Where a SMILES comes first, the peptide text is derived from it. [ ]: non-standard residue; d: D form. Nleu = CC(C)CNCC(=O)O; Nlys = NCCCCNCC(=O)O
# What was measured:
# [1] = Circular dichroism, α-helical content; assay type: physicochemical; conditions: 0.1 mg/mL; for CD %α with 5 mM DPC: 10 mM phosphate buffer pH 7.4, 5 mM DPC; for CD %α with 20% TFE: 10 mM phosphate buffer pH 7.4, 20% TFE
# [2] = tested on: E. coli W3110; assay: Time–kill assay; assay type: cell-based, Escherichia coli; conditions: E. coli W3110, diluted MH at pH 8.5
# Excerpt: Figure 1 Killing profile of selected compounds on bacteria a) against E. coli W3110 measured in full MH at pH 7.4, b) against P. aeruginosa PAO1 in full MH at pH 7.4, c) against E. coli W3110 in diluted MH at pH 8.5, and d) against P. aeruginosa PAO1 in dilute MH at pH 8.5. The assay was repeated twice in triplicate, and the data represent the mean ± SD, n = 6.
# [3] = tested on: K. pneumoniae NCTC418
# Outline: (§1)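 MTT added (20–30 min, room temperature); MIC read by eye as lowest concentration inhibiting visible growth (yellow). Polymyxin B positive control from 16 μg/mL.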
# [4] = tested on: A. baumannii ATCC19606
# Outline: as §1
# [5] = tested on: P. aeruginosa PAO1
# Outline: as §1
# [6] = tested on: P. aeruginosa PAO1; assay: DiSC3(5) inner membrane depolarization assay; assay type: cell-based, Pseudomonas aeruginosa; conditions: P. aeruginosa PAO1, 2 μM DiSC3(5)
# Procedure: Figure 5 Interactions of peptide–peptoid hybrids with bacterial outer and inner membranes of P. aeruginosa. (a, b) NPN outer membrane permeability assay. P. aeruginosa PAO1 bacteria were treated with increasing compound concentrations in the presence of 10 μM NPN. The fluorescence intensity (λex = 340 nm, λem = 415 nm) was measured within 5 min. Data represent the mean ± SD, n = 3. (c, d) DiSC3(5) inner membrane depolarization assay. P. aeruginosa PAO1 cells were treated with increasing compound concentrations in the presence of 2 μM DiSC3(5). The fluorescence intensity (λex = 610 nm, λem = 660 nm) was measured within 5 min after treatment, and the data represent mean ± SD, n = 3.
# A single colony of P. aeruginosa PAO1 and E. coli W3110 was grown overnight with shaking (150 rpm) in LB broth (5 mL) at 37 °C. A 100 μL portion of the overnight culture was regrown in 10 mL of LB broth with shaking (200 rpm) to the exponential phase (OD600 = 1, corresponding to 10^9 CFU/mL). Bacteria were washed once with HEPES buffer (5 mM HEPES, 5 mM glucose, pH 7.4) and diluted to an OD600 = 0.5. Stock solution of 10 mM of 3,3′-dipropylthiadicarbocyanine iodide (DiSC3(5), purchased from Sigma) was prepared in DMSO. Stock solutions of 2 mg/mL of the compounds were prepared in sterilized milli-Q water and diluted to the beginning concentration of 128 μg/mL in 200 μL of HEPES buffer containing 4 μM of the fluorescent probe DiSC3(5). The diluted samples were added to the first well of 96-well plates (black wells, flat bottom, BRAND GmbH Wertheim, Germany) and diluted serially by 1/2. 100 μL of the bacterial suspension in HEPES buffer (without fluorophore) was added to each well. In this case, the final OD of bacteria was 0.25, the final concentration of peptide in the first column was 64 μg/mL, and DiSC3(5) was 2 μM. The control wells are buffer containing DiSC3(5) and bacterial suspension containing DiSC3(5) in HEPES buffer. The plate was measured with a Tecan instrument Infinite M1000 within 5 min. […] The assay was measured in triplicate and repeated at least two times.[65],[75]
# [7] = Lipid vesicle leakage assay; conditions: 10 mM TRIS, 107 mM NaCl, pH 7.4
# Procedure: (c) Vesicle leakage assay for a selection of compounds.
# EYPG - EB11 1 EYPC - EB11
# Figure S2: Vesicle leakage experiments using 5(6)-carboxyfluorescein induced by peptides. EYPG and EYPC
# compound was added after 45 sec. After 240 seconds, 30 µL Triton X-100 1.2% was added for full release of […]
structure (smiles),measurement,setting,value
"CC(C)CN(CC(N)=O)C(=O)CN(CC(C)C)C(=O)CN(CC(C)C)C(=O)CN(CCCCN)C(=O)CN(CC(C)C)C(=O)CN(CC(C)C)C(=O)CN(CCCCN)C(=O)CN(CC(C)C)C(=O)CN(CC(C)C)C(=O)CN(CCCCN)C(=O)CNCCCCN [EB11, kkllkllklll] (H-[Nlys][Nlys][Nleu][Nleu][Nlys][Nleu][Nleu][Nlys][Nleu][Nleu][Nleu]-NH2)",CD %α with 5 mM DPC,"[1]; DichroWeb, Contin-LL",7%
same,CD %α with 20% TFE,"[1]; DichroWeb, Contin-LL",8%
same,CD %α with 5 mM DPC,[1]; Table S2,7%
same,CD %α with 20% TFE,[1]; Table S2,8%
same,"Time–kill, killing profile",[2],Bacteria could still be detected after 6 h
same,"MIC K. pneumoniae NCTC418, […] MH at pH 7.4","[3]; CSV, […] MH at pH 7.4",32 ug/mL
same,"MIC K. pneumoniae NCTC418, […] MH at pH 8.5","[3]; CSV, […] MH at pH 8.5",32 ug/mL
same,"MIC K. pneumoniae NCTC418, full MH at pH 7.4","[3]; CSV, full MH at pH 7.4",>32 ug/mL
same,"MIC K. pneumoniae NCTC418, full MH at pH 8.5","[3]; CSV, full MH at pH 8.5",>32 ug/mL
same,MIC K. pneumoniae NCTC418 […] 7.4,"[3]; Table S2, […] MH, pH 7.4",32 µg/mL
same,MIC K. pneumoniae NCTC418 […] 8.5,"[3]; Table S2, […] MH, pH 8.5",32 µg/mL
same,MIC K. pneumoniae NCTC418 Full MH 7.4,"[3]; Table S2, full MH, pH 7.4",> 32 µg/mL
same,MIC K. pneumoniae NCTC418 Full MH 8.5,"[3]; Table S2, full MH, pH 8.5",> 32 µg/mL
same,"MIC A. baumannii ATCC19606, […] MH at pH 7.4","[4]; CSV, […] MH at pH 7.4",16 ug/mL
same,"MIC A. baumannii ATCC19606, […] MH at pH 8.5","[4]; CSV, […] MH at pH 8.5",16 ug/mL
same,"MIC A. baumannii ATCC19606, full MH at pH 7.4","[4]; CSV, full MH at pH 7.4",>32 ug/mL
same,"MIC A. baumannii ATCC19606, full MH at pH 8.5","[4]; CSV, full MH at pH 8.5",>32 ug/mL
same,MIC A. baumannii ATCC19606 […] 7.4,"[4]; Table S2, […] MH, pH 7.4",16 µg/mL
same,MIC A. baumannii ATCC19606 […] 8.5,"[4]; Table S2, […] MH, pH 8.5",16 µg/mL
same,MIC A. baumannii ATCC19606 Full MH 7.4,"[4]; Table S2, full MH, pH 7.4",> 32 µg/mL
same,MIC A. baumannii ATCC19606 Full MH 8.5,"[4]; Table S2, full MH, pH 8.5",> 32 µg/mL
same,"MIC P. aeruginosa PAO1, […] MH at pH 7.4","[5]; CSV, […] MH at pH 7.4",8 ug/mL
same,"MIC P. aeruginosa PAO1, full MH at pH 7.4","[5]; CSV, full MH at pH 7.4",>32 ug/mL
same,"MIC P. aeruginosa PAO1, full MH at pH 8.5","[5]; CSV, full MH at pH 8.5",>32 ug/mL
same,Antibacterial activity as a function of NaCl concentration,"[5]; P. aeruginosa PAO1, […] MH at pH 8.5, up to 300 mM NaCl",strongly reduced
same,MIC P. aeruginosa PAO1 […] 7.4,"[5]; Table S2, […] MH, pH 7.4",8 µg/mL
same,MIC P. aeruginosa PAO1 […] 8.5,"[5]; Table S2, […] MH, pH 8.5",4 µg/mL
same,MIC P. aeruginosa PAO1 Full MH 7.4,"[5]; Table S2, full MH, pH 7.4",> 32 µg/mL
same,MIC P. aeruginosa PAO1 Full MH 8.5,"[5]; Table S2, full MH, pH 8.5",> 32 µg/mL
same,Inner membrane depolarization (DiSC3(5)),[6],partly depolarized the inner membrane
same,Vesicle leakage activity on EYPC vesicles,[7]; egg yolk phosphatidyl choline vesicles,no activity
same,Vesicle leakage activity on EYPG vesicles,[7]; fluorescein-loaded anionic EYPG vesicles,weak or no vesicle leakage activity
